# Data published in ChEMBL document CHEMBL5465560, “Selectivity Literature for EUbOPEN Chemogenomic Library” (2024).
# How the values were obtained:
# [1] = target: Serine/threonine-protein kinase 33 (Homo sapiens) (UniProt Q9BYT3); assay: Selectivity interaction (KinomeScan (DiscoverX)) EUB0001049a STK33; details: at 1 µM
# [2] = target: T1, Kinase suppressor of Ras 1 (Homo sapiens) (UniProt Q8IVT5); assay: Selectivity interaction (Kinase panel (KiNativ target engagement assay in Jurkat cells)) EUB0001635a KSR1; type: cell-based; details: at 1 µM
# T1 sequence (whole entry): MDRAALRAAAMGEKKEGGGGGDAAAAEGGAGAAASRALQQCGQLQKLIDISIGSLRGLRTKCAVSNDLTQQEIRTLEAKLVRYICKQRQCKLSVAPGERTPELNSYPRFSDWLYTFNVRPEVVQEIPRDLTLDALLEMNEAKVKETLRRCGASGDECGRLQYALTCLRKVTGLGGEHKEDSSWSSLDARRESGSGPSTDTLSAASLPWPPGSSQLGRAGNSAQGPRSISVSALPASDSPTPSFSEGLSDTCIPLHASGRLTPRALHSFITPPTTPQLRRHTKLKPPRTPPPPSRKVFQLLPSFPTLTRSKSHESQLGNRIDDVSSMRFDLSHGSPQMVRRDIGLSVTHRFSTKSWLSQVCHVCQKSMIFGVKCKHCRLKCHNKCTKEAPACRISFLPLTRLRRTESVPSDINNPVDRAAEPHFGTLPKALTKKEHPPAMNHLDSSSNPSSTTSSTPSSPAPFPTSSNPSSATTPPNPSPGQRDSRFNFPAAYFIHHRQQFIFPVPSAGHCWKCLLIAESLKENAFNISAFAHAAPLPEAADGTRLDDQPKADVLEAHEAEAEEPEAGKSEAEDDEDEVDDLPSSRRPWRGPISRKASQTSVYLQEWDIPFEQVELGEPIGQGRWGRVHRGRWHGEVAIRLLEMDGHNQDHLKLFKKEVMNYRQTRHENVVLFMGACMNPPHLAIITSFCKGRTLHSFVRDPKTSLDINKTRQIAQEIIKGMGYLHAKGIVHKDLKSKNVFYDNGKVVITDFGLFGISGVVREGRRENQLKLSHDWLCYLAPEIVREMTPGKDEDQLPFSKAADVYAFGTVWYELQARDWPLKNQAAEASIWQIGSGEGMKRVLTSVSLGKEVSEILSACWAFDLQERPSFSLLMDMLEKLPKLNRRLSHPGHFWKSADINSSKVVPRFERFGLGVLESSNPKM
# [3] = target: T2, Mitogen-activated protein kinase 12 (Homo sapiens) (UniProt P53778); assay: Selectivity interaction (KinomeScan (DiscoverX)) EUB0000618a MAPK12; details: at 10 µM
# T2 sequence (whole entry): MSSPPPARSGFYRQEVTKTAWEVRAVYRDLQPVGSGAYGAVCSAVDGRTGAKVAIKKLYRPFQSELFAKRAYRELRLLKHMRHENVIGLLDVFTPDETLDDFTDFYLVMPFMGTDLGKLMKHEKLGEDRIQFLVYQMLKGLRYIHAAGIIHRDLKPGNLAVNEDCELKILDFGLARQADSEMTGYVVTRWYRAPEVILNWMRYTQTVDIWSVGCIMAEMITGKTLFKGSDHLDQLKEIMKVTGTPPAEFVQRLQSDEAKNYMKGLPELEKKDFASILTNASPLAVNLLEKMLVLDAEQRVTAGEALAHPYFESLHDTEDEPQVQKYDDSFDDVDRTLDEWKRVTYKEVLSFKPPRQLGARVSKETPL
# [4] = target: Mitogen-activated protein kinase kinase kinase 4 (Homo sapiens) (UniProt Q9Y6R4); assay: Selectivity interaction (ActivX KiNativ screen (ex vivo kinase selectivity in human PBMCs)) EUB0001619a MAP3K4; type: cell-based; details: PBMC, at 1 µM
# Sequence of Mitogen-activated protein kinase kinase kinase 4 (Homo sapiens) (Q9Y6R4 whole entry): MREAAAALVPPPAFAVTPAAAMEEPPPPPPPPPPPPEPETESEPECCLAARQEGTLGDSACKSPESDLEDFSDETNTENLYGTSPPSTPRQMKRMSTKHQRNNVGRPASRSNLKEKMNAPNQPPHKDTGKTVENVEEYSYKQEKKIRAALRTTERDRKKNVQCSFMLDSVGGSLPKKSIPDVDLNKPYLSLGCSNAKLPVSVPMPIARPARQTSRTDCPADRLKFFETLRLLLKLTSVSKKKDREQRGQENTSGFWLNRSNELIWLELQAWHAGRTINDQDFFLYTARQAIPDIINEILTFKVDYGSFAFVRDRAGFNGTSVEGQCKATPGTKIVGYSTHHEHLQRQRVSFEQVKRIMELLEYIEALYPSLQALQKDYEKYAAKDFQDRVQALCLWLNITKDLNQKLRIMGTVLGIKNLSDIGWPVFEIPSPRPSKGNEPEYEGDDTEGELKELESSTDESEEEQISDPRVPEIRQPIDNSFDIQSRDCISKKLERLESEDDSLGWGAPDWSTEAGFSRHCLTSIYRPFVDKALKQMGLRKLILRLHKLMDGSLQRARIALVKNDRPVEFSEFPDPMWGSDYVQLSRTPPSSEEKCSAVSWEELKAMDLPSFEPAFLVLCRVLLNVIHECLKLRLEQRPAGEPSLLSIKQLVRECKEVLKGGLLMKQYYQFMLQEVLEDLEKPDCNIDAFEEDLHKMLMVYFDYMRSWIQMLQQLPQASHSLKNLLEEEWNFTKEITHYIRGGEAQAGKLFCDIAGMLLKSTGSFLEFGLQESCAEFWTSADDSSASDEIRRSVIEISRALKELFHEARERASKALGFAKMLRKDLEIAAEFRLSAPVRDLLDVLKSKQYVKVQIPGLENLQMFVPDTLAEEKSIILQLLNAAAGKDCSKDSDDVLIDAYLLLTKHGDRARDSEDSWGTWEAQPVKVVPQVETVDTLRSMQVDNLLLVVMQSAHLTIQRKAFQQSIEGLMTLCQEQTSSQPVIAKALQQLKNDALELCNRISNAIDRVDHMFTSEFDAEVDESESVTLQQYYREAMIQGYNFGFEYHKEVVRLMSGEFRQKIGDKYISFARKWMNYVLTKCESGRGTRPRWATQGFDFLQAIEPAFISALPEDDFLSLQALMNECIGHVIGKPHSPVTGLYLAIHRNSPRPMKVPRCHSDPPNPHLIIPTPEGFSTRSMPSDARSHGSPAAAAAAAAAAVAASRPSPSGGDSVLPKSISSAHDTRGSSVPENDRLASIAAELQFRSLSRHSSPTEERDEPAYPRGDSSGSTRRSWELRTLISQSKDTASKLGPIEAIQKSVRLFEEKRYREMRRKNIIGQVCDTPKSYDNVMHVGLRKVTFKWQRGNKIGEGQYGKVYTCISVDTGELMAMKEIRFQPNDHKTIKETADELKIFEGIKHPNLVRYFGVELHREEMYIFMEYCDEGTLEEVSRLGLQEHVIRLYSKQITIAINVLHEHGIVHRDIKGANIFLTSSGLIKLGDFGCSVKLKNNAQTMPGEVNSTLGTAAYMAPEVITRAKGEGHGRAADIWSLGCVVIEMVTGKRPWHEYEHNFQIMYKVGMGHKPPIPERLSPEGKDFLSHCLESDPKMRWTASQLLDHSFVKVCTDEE
# [5] = target: T3, Mitogen-activated protein kinase kinase kinase 5 (Homo sapiens) (UniProt Q99683); assay: Selectivity interaction (KinomeScan (DiscoverX)) EUB0001619a MAP3K5; details: at 1 µM
# T3 sequence (whole entry): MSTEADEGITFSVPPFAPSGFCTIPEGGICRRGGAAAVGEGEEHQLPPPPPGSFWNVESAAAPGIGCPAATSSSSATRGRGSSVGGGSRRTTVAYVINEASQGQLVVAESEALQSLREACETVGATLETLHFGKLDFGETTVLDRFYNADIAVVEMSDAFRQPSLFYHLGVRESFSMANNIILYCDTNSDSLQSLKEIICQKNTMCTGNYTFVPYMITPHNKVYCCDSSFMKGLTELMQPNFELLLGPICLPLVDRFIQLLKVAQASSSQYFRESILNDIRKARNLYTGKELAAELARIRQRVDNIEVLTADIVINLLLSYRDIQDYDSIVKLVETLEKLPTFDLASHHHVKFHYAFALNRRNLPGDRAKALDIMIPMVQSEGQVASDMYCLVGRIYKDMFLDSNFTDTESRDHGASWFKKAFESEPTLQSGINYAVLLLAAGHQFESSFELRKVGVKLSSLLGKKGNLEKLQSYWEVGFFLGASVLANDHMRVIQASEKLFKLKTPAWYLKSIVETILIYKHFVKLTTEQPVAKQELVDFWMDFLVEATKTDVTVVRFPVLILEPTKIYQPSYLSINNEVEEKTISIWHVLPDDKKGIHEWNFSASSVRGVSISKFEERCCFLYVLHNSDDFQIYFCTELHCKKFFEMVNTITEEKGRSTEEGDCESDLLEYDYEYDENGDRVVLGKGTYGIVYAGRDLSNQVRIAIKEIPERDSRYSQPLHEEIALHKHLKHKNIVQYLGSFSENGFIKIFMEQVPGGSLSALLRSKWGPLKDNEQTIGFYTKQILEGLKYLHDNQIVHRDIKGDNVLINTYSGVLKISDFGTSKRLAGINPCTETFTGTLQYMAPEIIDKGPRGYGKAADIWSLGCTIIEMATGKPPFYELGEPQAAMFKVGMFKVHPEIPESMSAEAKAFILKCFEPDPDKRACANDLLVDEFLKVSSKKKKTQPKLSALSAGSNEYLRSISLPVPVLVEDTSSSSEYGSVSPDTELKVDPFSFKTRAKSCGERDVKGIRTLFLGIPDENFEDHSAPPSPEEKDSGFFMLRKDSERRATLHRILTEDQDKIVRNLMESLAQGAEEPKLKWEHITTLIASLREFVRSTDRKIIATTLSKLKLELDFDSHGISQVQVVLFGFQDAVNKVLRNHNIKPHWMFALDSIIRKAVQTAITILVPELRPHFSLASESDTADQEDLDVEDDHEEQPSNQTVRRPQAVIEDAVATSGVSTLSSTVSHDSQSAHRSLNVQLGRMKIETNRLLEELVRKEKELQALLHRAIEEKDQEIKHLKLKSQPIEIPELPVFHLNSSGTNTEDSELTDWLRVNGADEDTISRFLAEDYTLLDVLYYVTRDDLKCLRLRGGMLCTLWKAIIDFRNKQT
# [6] = target: Serine/threonine-protein kinase pim-2 (Homo sapiens, UniProt Q9P1W9); assay: Selectivity interaction (KinomeScan (DiscoverX)) EUB0000695a PIM2; details: at 100 nM
# Sequence of Serine/threonine-protein kinase pim-2 (Q9P1W9 whole entry, looked up): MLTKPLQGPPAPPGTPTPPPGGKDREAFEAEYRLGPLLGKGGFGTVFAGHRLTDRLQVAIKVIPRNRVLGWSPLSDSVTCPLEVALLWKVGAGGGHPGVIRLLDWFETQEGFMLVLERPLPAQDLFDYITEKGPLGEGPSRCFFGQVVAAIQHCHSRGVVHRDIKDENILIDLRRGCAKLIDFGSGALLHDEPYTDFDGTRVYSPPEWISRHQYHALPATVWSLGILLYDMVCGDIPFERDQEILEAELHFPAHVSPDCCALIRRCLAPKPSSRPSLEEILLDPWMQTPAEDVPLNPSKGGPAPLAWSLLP
# Sequence of Serine/threonine-protein kinase 33 (Homo sapiens) (Q9BYT3 whole entry, looked up): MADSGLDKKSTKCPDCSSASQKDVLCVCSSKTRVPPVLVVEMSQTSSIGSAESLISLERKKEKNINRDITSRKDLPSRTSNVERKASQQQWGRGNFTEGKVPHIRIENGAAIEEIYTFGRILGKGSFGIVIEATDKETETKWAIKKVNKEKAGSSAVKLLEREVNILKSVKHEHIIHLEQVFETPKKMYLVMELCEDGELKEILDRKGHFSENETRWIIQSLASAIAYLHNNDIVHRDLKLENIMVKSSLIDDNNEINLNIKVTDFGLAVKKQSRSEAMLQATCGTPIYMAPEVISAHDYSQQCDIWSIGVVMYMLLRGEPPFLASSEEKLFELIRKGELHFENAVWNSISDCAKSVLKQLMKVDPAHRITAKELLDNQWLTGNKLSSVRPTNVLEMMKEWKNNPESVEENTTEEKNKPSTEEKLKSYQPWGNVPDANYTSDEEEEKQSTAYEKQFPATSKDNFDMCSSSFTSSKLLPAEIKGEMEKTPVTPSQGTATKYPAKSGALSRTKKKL
smiles,measurement,setting,value
COc1cc(Nc2nc(C)cc(-c3cnn4nc(OC)ccc34)n2)cc(C(F)(F)F)c1,% of control,[1],94%
C=CC(=O)Nc1ccc(C(=O)Nc2[nH]nc3c2CN(C(=O)N[C@H](CN(C)C)c2ccccc2)C3(C)C)cc1,% of engagement,[2],-1.6%
O[C@H]1CC[C@H](Nc2ncc3nc(Nc4c(F)cc(F)cc4F)n([C@H]4CCOC4)c3n2)CC1,% of control,[3],80%
N#Cc1cccc(-c2c[nH]c3ncnc(N4CCOCC4)c23)c1,% of inhibition,[4],30%
same,% of control,[5],26%
Cc1cc(F)c(C(=O)Nc2cccc(-c3nncn3C(C)C)n2)cc1-n1cnc(C2CC2)c1,% of control,[6],78%
